Data on one molecule can be found in ChEMBL document CHEMBL4507303, “Data for DCP probe TP-004” (2021).

In this experiment the target is Endothelin-1 receptor (Homo sapiens, UniProt P25101). The experiment is described as follows: Inhibition of [125I]-endothelin-1 binding to EDNRA.

A value given as a limit tells only on which side of the number the result lay.

Chain of Endothelin-1 receptor (P25101 whole entry): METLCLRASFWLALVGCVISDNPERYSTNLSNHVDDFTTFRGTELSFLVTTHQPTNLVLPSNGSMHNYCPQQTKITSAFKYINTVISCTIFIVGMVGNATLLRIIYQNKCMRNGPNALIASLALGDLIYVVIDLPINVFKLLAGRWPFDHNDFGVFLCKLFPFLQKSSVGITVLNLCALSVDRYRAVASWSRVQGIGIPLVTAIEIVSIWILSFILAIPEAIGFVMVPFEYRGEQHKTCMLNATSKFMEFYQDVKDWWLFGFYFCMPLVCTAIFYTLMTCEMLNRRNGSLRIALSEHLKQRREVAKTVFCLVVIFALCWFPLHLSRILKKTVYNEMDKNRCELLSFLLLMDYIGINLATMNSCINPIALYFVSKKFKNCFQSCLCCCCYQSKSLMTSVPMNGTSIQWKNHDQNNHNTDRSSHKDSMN

One may read the IC50 as the midpoint of a concentration-inhibition curve. The low end stands for inhibition by little substance, the high end for a need for much substance. Turning to `FC(F)(F)c1cc(-c2ccccc2)c2nncn2c1` [TPn-004], the IC50 was > 10 µM (not active).
